Test results: US12590062B2, “PD-1/PD-L1 inhibitors” (Gilead Sciences, Inc., priority 2017, dated 2026)

Key:
PD-1/PD-L1 = PD-1/PD-L1 (Homo sapiens, UniProt Q9NZQ7); experiment: PD-1/PD-L1 biochemical protein-protein interaction assay (ALPHA); assay type: binding; conditions: 0.3 nM His tagged PD-L1, 2.5 nM biotinylated Fc-PD-1, 60 minutes at 25° C., read-out: IC50 PD-L1-PD-1 Alpha IC50-mono PD-L1-fcP-D1
How it was run: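 ALPHA bead proximity assay of extracellular domains: 0.3 nM His-PD-L1 with 2.5 nM biotinylated Fc-PD-1 in 25 mM Hepes pH 7.4, 150 mM NaCl, 3.4 mM EDTA, 0.005% Tween 20, 0.01% BSA, 60 min at 25 °C. Anti-His acceptor and streptavidin donor beads added; IC50 from four-parameter fit of signal loss.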

PD-1/PD-L1 interaction = target: T1, PD-1/PD-L1 interaction (Homo sapiens, UniProt Q9NZQ7); experiment: PD-1/PD-L1 NFAT reporter co-culture assay; assay type: cell-based; conditions: Jurkat PD-1 NFAT-luciferase cells co-cultured with aAPC-PD-L1 CHO cells, 6 hrs at 37° C.; read-out: EC50 NFAT Luciferase
T1 construct: expressed in transfected cells; host or cells: CHO cells (aAPC-PD-L1) co-cultured with Jurkat cells overexpressing PD-1 and an NFAT-luciferase reporter
How it was run: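 Jurkat cells overexpressing PD-1 with NFAT-driven luciferase were mixed with compound in RPMI 1640/2% FBS and seeded onto overnight-plated CHO aAPC-PD-L1 cells expressing surface anti-CD3 and PD-L1. Co-culture ran 6 h at 37 °C; luminescence read with ONE-Glo; EC50 from four-parameter fit.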

PD-L1 = target: T2, PD-L1 (Homo sapiens, UniProt Q9NZQ7); experiment: PD-L1/PD-L1 dimerization biochemical protein-protein interaction assay (ALPHA); assay type: binding; conditions: compound-induced PD-L1 dimerization, head prints '1 nM' (0.5 nM His-tagged PD-L1 and 0.5 nM FLAG-tagged PD-L1), read-out: AC50 PDL1 Dimer Alpha 1 nM
T2 construct: determine if they can specifically dimerize the extracellular domains of PD-L1
How it was run: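 ALPHA proximity assay of compound-induced dimerization of 0.5 nM His-tagged and 0.5 nM FLAG-tagged PD-L1 extracellular domains in Hepes pH 7.4 buffer, 2 h at 25 °C. Anti-His acceptor then anti-FLAG donor beads, 60 min each; AC50 from four-parameter fit.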

Chain of PD-1/PD-L1 (Q9NZQ7 19-238 limits assumed): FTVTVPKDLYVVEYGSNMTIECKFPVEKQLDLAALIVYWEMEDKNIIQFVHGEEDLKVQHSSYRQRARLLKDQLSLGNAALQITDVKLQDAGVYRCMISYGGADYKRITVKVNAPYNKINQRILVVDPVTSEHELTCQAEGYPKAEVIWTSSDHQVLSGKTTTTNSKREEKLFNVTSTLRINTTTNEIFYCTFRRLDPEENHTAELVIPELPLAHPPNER
T2 sequence (Q9NZQ7 19-238 limits assumed): as above
T2 sequence (Q9NZQ7 19-238 limits assumed): as above
T1 sequence (Q9NZQ7 19-290): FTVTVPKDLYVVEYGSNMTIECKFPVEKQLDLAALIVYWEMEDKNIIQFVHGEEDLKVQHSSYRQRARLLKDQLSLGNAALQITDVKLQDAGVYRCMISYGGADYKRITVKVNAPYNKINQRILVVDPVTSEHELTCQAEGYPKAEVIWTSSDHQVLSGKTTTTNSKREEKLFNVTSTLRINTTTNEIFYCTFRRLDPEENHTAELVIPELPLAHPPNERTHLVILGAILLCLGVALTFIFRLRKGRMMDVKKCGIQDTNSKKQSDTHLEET

Compound | IC50 (PD-1/PD-L1) [nM] | EC50 (PD-1/PD-L1 interaction) [nM] | AC50 (PD-L1) [nM]
Cc1c(COc2cc(OCc3cncc(C#N)c3)c(CNC[C@@H](O)CC(=O)O)cc2Cl)cccc1-c1cccc(-c2ccc3c(CNC[C@@H](O)CC(=O)O)ccc(Cl)c3c2)c1C [Example 359, (S)-4-(((6-(3′-((4-((((S)-3-carboxy-2-hydroxypropyl)amino)methyl)-2-chloro-5-((5-cyanopyridin-3-yl)methoxy)phenoxy)methyl)-2,2′-dimethyl-[1,1′-biphenyl]-3-yl)-4-chloronaphthalen-1-yl)methyl)amino)-3-hydroxybutanoic acid] | 2.11 | 216 | 540
Cc1c(COc2cc(OCc3cncc(C#N)c3)c(CN[C@@](C)(CO)C(=O)O)cc2Cl)cccc1-c1cccc(-c2ccc(CNCCc3c[nH]cn3)cc2)c1C [Example 360, (S)-2-((4-((4″-(((2-(1H-imidazol-4-yl)ethyl)amino)methyl)-2,2′-dimethyl-[1,1′:3′,1″-terphenyl]-3-yl)methoxy)-5-chloro-2-((5-cyanopyridin-3-yl)methoxy)benzyl)amino)-3-hydroxy-2-methylpropanoic acid] | 1.12 | 520 | 224
Cc1c(COc2cc(OCc3cncc(C#N)c3)c(CN[C@@](C)(CO)C(=O)O)cc2Cl)cccc1-c1cccc(-c2ccc(CN[C@H]3CC[C@H](O)CC3)cc2)c1C [Example 361, (S)-2-((5-chloro-2-((5-cyanopyridin-3-yl)methoxy)-4-((4″-((((1r,4r)-4-hydroxycyclohexyl)amino)methyl)-2,2′-dimethyl-[1,1′:3′,1″-terphenyl]-3-yl)methoxy)benzyl)amino)-3-hydroxy-2-methylpropanoic acid] | 0.13 | 314 | 138
CC(=O)NCCNCc1ccc(-c2cccc(-c3cccc(COc4cc(OCc5cncc(C#N)c5)c(CN[C@@](C)(CO)C(=O)O)cc4Cl)c3C)c2C)cc1 [Example 362, (S)-2-((4-((4″-(((2-acetamidoethyl)amino)methyl)-2,2′-dimethyl-[1,1′:3′,1″-terphenyl]-3-yl)methoxy)-5-chloro-2-((5-cyanopyridin-3-yl)methoxy)benzyl)amino)-3-hydroxy-2-methylpropanoic acid] | 0.104 | 221 | 108
Cc1c(COc2cc(OCc3cncc(C#N)c3)c(CN[C@@](C)(CO)C(=O)O)cc2Cl)cccc1-c1cccc(-c2ccc(CNC3CNC(=O)C3)cc2)c1C (stereo partly drawn) [Example 363, (2S)-2-((5-chloro-2-((5-cyanopyridin-3-yl)methoxy)-4-((2,2′-dimethyl-4″-(((5-oxopyrrolidin-3-yl)amino)methyl)-[1,1′:3′,1″-terphenyl]-3-yl)methoxy)benzyl)amino)-3-hydroxy-2-methylpropanoic acid] | 0.081 | 168 | 171
Cc1c(COc2cc(OCc3cncc(C#N)c3)c(CN[C@@](C)(CO)C(=O)O)cc2Cl)cccc1-c1cccc(-c2ccc(OCCc3cccnc3)c(CNCCO)c2)c1C [Example 364, (S)-2-((5-chloro-2-((5-cyanopyridin-3-yl)methoxy)-4-((3″-(((2-hydroxyethyl)amino)methyl)-2,2′-dimethyl-4″-(2-(pyridin-3-yl)ethoxy)-[1,1′:3′,1″-terphenyl]-3-yl)methoxy)benzyl)amino)-3-hydroxy-2-methylpropanoic acid] | 0.304 | 353 | 98.3
Cc1c(COc2cc(OCc3cncc(C#N)c3)c(CNCCO)cc2Cl)cccc1-c1cccc(-c2ccc(CNCCO)cc2)c1CF [Example 365, 5-((4-chloro-5-((2′-(fluoromethyl)-4″-(((2-hydroxyethyl)amino)methyl)-2-methyl-[1,1′:3′,1″-terphenyl]-3-yl)methoxy)-2-(((2-hydroxyethyl)amino)methyl)phenoxy)methyl)nicotinonitrile] | 1.57 | 408 | 174
Cc1c(COc2cc(OCc3cncc(C#N)c3)c(CN[C@H]3CCCC[C@@H]3O)cc2Cl)cccc1-c1cccc(-c2cccc(OCCNCCO)c2)c1C [Example 367, 5-((4-chloro-2-((((1S,2S)-2-hydroxycyclohexyl)amino)methyl)-5-((3″-(2-((2-hydroxyethyl)amino)ethoxy)-2,2′-dimethyl-[1,1′:3′,1″-terphenyl]-3-yl)methoxy)phenoxy)methyl)nicotinonitrile] | 2.53 | 376 | 227
Cc1c(COc2cc(OCc3cncc(C#N)c3)c(CN[C@@H]3CCC[C@@H]3O)cc2Cl)cccc1-c1cccc(-c2ccc(CN3CC(CC(=O)O)C3)cc2)c1C [Example 368, 2-(1-((3″-((2-chloro-5-((5-cyanopyridin-3-yl)methoxy)-4-((((1R,2S)-2-hydroxycyclopentyl)amino)methyl)phenoxy)methyl)-2′,2″-dimethyl-[1,1′:3′,1″-terphenyl]-4-yl)methyl)azetidin-3-yl)acetic acid] | 1.88 | 118 | 274
Cc1c(COc2cc(OCc3cncc(C#N)c3)c(CN[C@@H]3CCC[C@@H]3O)cc2Cl)cccc1-c1cccc(-c2ccc3c(c2)CCC3N2CC[C@H](C(=O)O)C2)c1C (stereo partly drawn) [Example 369, (3S)-1-(5-(3′-((2-chloro-5-((5-cyanopyridin-3-yl)methoxy)-4-((((1R,2S)-2-hydroxycyclopentyl)amino)methyl)phenoxy)methyl)-2,2′-dimethyl-[1,1′-biphenyl]-3-yl)-2,3-dihydro-1H-inden-1-yl)pyrrolidine-3-carboxylic acid] | 0.164 | 107 | 57.6
Cc1c(COc2cc(OCc3cncc(C#N)c3)c(CN3CC[C@@H](O)C3)cc2Cl)cccc1-c1cccc(-c2ccc3c(c2)CCC3N2CC[C@@H](C(=O)O)C2)c1C (stereo partly drawn) [Example 370, (3R)-1-(5-(3′-((2-chloro-5-((5-cyanopyridin-3-yl)methoxy)-4-(((R)-3-hydroxypyrrolidin-1-yl)methyl)phenoxy)methyl)-2,2′-dimethyl-[1,1′-biphenyl]-3-yl)-2,3-dihydro-1H-inden-1-yl)pyrrolidine-3-carboxylic acid] | 0.139 | 577 | 81.4
Cc1c(COc2cc(OCc3cncc(C#N)c3)c(CN[C@@](C)(CO)C(=O)O)cc2Cl)cccc1-c1cccc(-c2ccc3c(c2)CCC3N2CC(C)C2)c1C (stereo partly drawn) [Example 371, (2S)-2-((5-chloro-2-((5-cyanopyridin-3-yl)methoxy)-4-((2,2′-dimethyl-3′-(1-(3-methylazetidin-1-yl)-2,3-dihydro-1H-inden-5-yl)-[1,1′-biphenyl]-3-yl)methoxy)benzyl)amino)-3-hydroxy-2-methylpropanoic acid] | 0.074 | 210 | 78
Cc1c(COc2cc(OCc3cncc(C#N)c3)c(CNC[C@@H](O)CC(=O)O)cc2Cl)cccc1-c1cccc(-c2cc3c(cc2F)C(N(C)C)CC3)c1C (stereo partly drawn) [Example 372, (3S)-4-((5-chloro-2-((5-cyanopyridin-3-yl)methoxy)-4-((3′-(1-(dimethylamino)-6-fluoro-2,3-dihydro-1H-inden-5-yl)-2,2′-dimethyl-[1,1′-biphenyl]-3-yl)methoxy)benzyl)amino)-3-hydroxybutanoic acid] | 1.13 | 860 | 425
Cc1c(COc2cc(OCc3cncc(C#N)c3)c(CNCCO)cc2Cl)cccc1-c1cccc(-c2ccc3c(c2)CCC3N2CC[C@H](O)C2)c1C (stereo partly drawn) [Example 373, 5-((4-chloro-2-(((2-hydroxyethyl)amino)methyl)-5-((3′-(1-((S)-3-hydroxypyrrolidin-1-yl)-2,3-dihydro-1H-inden-5-yl)-2,2′-dimethyl-[1,1′-biphenyl]-3-yl)methoxy)phenoxy)methyl)nicotinonitrile] | 2.59 | 339 | 168
Cc1c(COc2cc(OCc3cncc(C#N)c3)c(CN[C@@](C)(CO)C(=O)O)cc2Cl)cccc1-c1cccc(-c2ccc(C3CCCN3CCO)cc2)c1C (stereo partly drawn) [Example 374, (2S)-2-((5-chloro-2-((5-cyanopyridin-3-yl)methoxy)-4-((4″-(1-(2-hydroxyethyl)pyrrolidin-2-yl)-2,2′-dimethyl-[1,1′:3′,1″-terphenyl]-3-yl)methoxy)benzyl)amino)-3-hydroxy-2-methylpropanoic acid] | 0.136 | 788 | 165
Cc1c(COc2cc(OCc3cncc(C#N)c3)c(CN[C@@](C)(CO)C(=O)O)cc2Cl)cccc1-c1cccc(-c2ccc3c(c2)CCC3N(C)CCO)c1C (stereo partly drawn) [Example 375, (2S)-2-((5-chloro-2-((5-cyanopyridin-3-yl)methoxy)-4-((3′-(1-((2-hydroxyethyl)(methyl)amino)-2,3-dihydro-1H-inden-5-yl)-2,2′-dimethyl-[1,1′-biphenyl]-3-yl)methoxy)benzyl)amino)-3-hydroxy-2-methylpropanoic acid] | 0.21 | 389 | 173
